Laboratory results from patent US20260327224A1, “SUBSTITUTED PYRIDOTRIAZOLE COMPOUND, AND PREPARATION METHOD THEREFOR AND USE THEREOF” (ORIGIANT PHARMACEUTICAL CO., LTD., priority 2023, published 2026).

Key:
[1] = tested on: HT-29 cells (colon cancer cells); assay: In vitro assay for protection of HT-29 cells from necroptosis (TNFα/Smac mimetic/Z-VAD-FMK, CCK-8); type: cell-based; settings: Homo sapiens, Protective Activity Against Necroptosis, TNFα/Smac mimetic/Z-VAD-FMK induced, 24 h
Summary of the method: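 Cells seeded overnight received compound in triplicate, then were induced with TNFα/Smac mimetic/Z-VAD-FMK for 24 h. Viability was read by CCK-8 absorbance at 495 nm after 1-3 h; protection rate normalized to solvent and medium-only controls, EC50 from fitted curve.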

RIPK1 kinase = target: T1, RIPK1 kinase (Homo sapiens, UniProt Q13546); assay: In vitro RIPK1 kinase assay (Eurofins Kinase Profiler); type: biochemical; settings: Inhibitory Activity Against RIPK1 Kinase
T1 construct: Eurofins
T1 sequence (Q13546 1-671): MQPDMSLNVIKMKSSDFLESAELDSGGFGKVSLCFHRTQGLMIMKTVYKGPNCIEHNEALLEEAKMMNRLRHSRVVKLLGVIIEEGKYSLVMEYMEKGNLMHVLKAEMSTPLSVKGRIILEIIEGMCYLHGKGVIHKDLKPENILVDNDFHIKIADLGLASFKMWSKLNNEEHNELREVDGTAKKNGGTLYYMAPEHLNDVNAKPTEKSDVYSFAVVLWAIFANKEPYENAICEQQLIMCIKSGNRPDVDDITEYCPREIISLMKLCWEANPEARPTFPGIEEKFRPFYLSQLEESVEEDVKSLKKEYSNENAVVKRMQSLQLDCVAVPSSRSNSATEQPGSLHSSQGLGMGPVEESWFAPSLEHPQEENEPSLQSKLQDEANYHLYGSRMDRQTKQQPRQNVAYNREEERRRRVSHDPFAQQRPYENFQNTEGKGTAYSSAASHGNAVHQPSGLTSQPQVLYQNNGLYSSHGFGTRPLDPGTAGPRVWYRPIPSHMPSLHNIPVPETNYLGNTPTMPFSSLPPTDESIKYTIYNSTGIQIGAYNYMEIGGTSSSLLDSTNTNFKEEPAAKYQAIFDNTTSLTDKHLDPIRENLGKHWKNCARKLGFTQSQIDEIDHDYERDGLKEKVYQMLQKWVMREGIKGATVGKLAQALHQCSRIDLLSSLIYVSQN
Method: In Vitro RIPK1 Kinase Assay:
This assay was completed using the Kinase Profiler service provided by Eurofins. The experimental method was as follows: The small molecule compound to be tested (0.001-10 M) and the protein kinase to be tested were incubated with a buffer containing a substrate, 10 mM magnesium acetate, and [γ-^33P-ATP]. The reaction was initiated by adding a Mg\ATPmix. After incubation at room temperature for a period of time, a 3% phosphate solution was added to the buffer to terminate the reaction. Subsequently, 10 μL of the reaction mixture was quantitatively pipetted and dropped onto P30 filter paper. The paper was washed three times with 75 mM phosphate solution and once with methanol. After drying, scintillation fluid was added for scinticounting. The inhibitory activity of the compound was expressed as the half-maximal inhibitory concentration (IC50). The IC50 values were derived by fitting the inhibition rates corresponding to the respective concentration gradients.

IC50 (RIPK1 kinase)	Compound	EC50 [1]
	CN(C)CC(=O)Nc1nc2cc(-c3ccc4c(c3)c(C(=O)N[C@H](c3ccc(F)cc3)C(F)F)cn4C)ccn2n1 [Compound 167]	< 1 nM
	Cn1cc(C(=O)N[C@H](c2ccc(F)cc2)C(F)F)c2cc(-c3ccn4nc(NC(=O)C5CC5)nc4c3)ccc21 [Compound 161]	< 1 nM
	CC(C(=O)Nc1nn(C)c2ccc(-c3ccn4nc(NC(=O)CN(C)C)nc4c3)cc12)c1ccc(F)cc1 (stereo not shown) [Compound 180]	1000 to 10000 nM
	Cn1cc(C(=O)N[C@@H](CF)c2ccc(F)cc2)c2cc(-c3ccn4nc(NCC5CC5)nc4c3)ccc21 [Compound 108]	< 1 nM
	Cn1cc(C(=O)N[C@H]2CCCc3cc(F)ccc32)c2cc(-c3ccn4nc(NC(=O)CC#N)nc4c3)ccc21 [Compound 142]	10 to 100 nM
	Cn1nc(C(=O)N[C@@H](CF)c2ccc(F)cc2)c2cc(-c3ccn4nc(NC(=O)C5CC5)nc4c3)ccc21 [Compound 190]	< 1 nM
	CCN(CC)CC(=O)Nc1nc2cc(-c3ccc4c(c3)c(C(=O)N[C@@H](C)c3ccc(F)cc3)cn4C)ccn2n1 [Compound 36]	< 1 nM
	Cn1cc(C(=O)N[C@@H](CF)c2ccc(F)cc2)c2cc(-c3ccn4nc(NC(=O)[C@H]5CCCO5)nc4c3)ccc21 [Compound 104]	1000 to 10000 nM
	CCOC(=O)Nc1nc2cc(-c3ccc4c(c3)c(C(=O)N[C@@H](C)c3ccc(F)cc3)cn4C)ccn2n1 [Compound 17]	< 1 nM
	C[C@H](NC(=O)c1cn(C)c2ccc(-c3ccn4nc(N5CCOCC5=O)nc4c3)cc12)c1ccc(F)cc1 [Compound 218]	10 to 100 nM
	CN(C)CC(=O)Nc1nc2cc(-c3ccc4c(c3)c(C(=O)N[C@H]3CCc5ccc(F)cc53)cn4C)ccn2n1 [Compound 123]	1 to 10 nM
	C[C@H](NC(=O)c1cn(C)c2ccc(-c3ccn4nc(NC(=O)CN5CCN(C(=O)OC(C)(C)C)C[C@H]5C)nc4c3)cc12)c1ccc(F)cc1 [Compound 64]	< 1 nM
	CN1CC[C@@H](C(=O)Nc2nc3cc(-c4ccc5c(c4)c(C(=O)N[C@@H](CF)c4ccc(F)cc4)cn5C)ccn3n2)C1 [Compound 100]	< 1 nM
	C[C@H](NC(=O)c1cn(C)c2ccc(-c3ccn4nc(NC(=O)CN5CCOC[C@@H]5C)nc4c3)cc12)c1ccc(F)cc1 [Compound 60]	< 1 nM
	C[C@H](NC(=O)c1cn(C)c2ccc(-c3ccn4nc(NC(=O)Cn5ccnn5)nc4c3)cc12)c1ccc(F)cc1 [Compound 52]	< 1 nM
	C[C@H](NC(=O)c1cn(C)c2ccc(-c3ccn4nc(NC(=O)C5CC5F)nc4c3)cc12)C(C)(C)C (stereo partly shown) [Compound 92]	100 to 1000 nM
10 to 100 nM	C[C@H](NC(=O)c1cn(C)c2ccc(-c3ccn4nc(NC(=O)CN5CCOCC5(C)C)nc4c3)cc12)c1ccc(F)cc1 [Compound 32]	< 1 nM
	Cn1cc(C(=O)N[C@@H](CF)c2ccc(F)cc2)c2cc(-c3ccn4nc(NC(=O)CN5CCCCC5)nc4c3)ccc21 [Compound 96]	< 1 nM
	C[C@H](NC(=O)c1cn(C)c2ccc(-c3ccn4nc(NC(=O)[C@H]5CCCO5)nc4c3)cc12)c1ccc(F)cc1 [Compound 117]	< 1 nM
	C[C@H](NC(=O)c1cn(C)c2ccc(-c3ccn4nc(NC(=O)CN5CCC[C@H]5C(=O)O)nc4c3)cc12)c1ccc(F)cc1 [Compound 37]	1 to 10 nM
	C[C@H](NC(=O)c1cn(C)c2ccc(-c3ccn4nc(NC(=O)CN5CC[C@H](F)C5)nc4c3)cc12)c1ccc(F)cc1 [Compound 21]	< 1 nM
